Results taken from US9040903B2, “Precursor selection using an artificial intelligence algorithm increases proteomic sample coverage and reproducibility” (Wisconsin Alumni Research Foundation, priority 2011, dated 2015).

B1: bone morphogenetic protein 4 (protein, UniProt P12644 293-408, looked up)
Bone morphogenetic protein 4: SPKHHSQRARKKNKNCRRHSLYVDFSDVGWNDWIVAPPGYQAFYCHGDCPFPLADHLNSTNHAIVQTLVNSVNSSIPKACCVPTELSAISMLYLDEYDKVVLKNYQEMVVEGCGCR

Legend:
[1] = tested on: mouse skeletal muscle myotubes; assay: Immunoblot of mitochondrial proteins after iron chelation of myotubes; type: cell-based
[2] = tested on: human embryonic stem cells (ESCs); assay: TMT 6-plex isobaric tag quantitation of human embryonic stem cells before and two days after BMP4 treatment (inSeq-triggered QuantMode scans); type: cell-based; conditions: two days post treatment
Procedure: To assess this decision node, a sample comprising three biological replicates of human embryonic stem cells (ESCs) was analyzed pre- and two days-post bone morphogenetic protein 4 (BMP4) treatment (i.e., TMT 6-plex, three pre-treatment and three post BMP4 treatment cell populations). BMP4, a growth factor that induces context-dependent differentiation in pluripotent stem cells, is widely used to study differentiation to biologically relevant cell lineages such as mesoderm and endoderm. […] Here the ratio of change between control and treatment cell lines measured in one QM scan is large (5.86) but not significant (P=0.067, Student's t-test with Storey correction) (34). Note significance testing was accomplished by assessing variation within the three biological replicates of both treatment and control cell lines. The measured ratio remains relatively unchanged (5.22 and 5.43) as reporter tag signal from additional quantitation scans are added; however, the corresponding P-values decrease to 0.014 and 0.012 when two or three quantitation scans are summed. […] Ideally this log2 ratio would be zero, indicating perfect biological replication; however, when only one quantitation scan is employed this ratio severely deviates from zero with decreasing tag intensity. To improve overall data quality and to omit potentially erroneous measurements arbitrary reporter signal cutoffs (dashed vertical line in FIG. 16B) can be employed. These cutoffs eliminate many low-abundance peptides which often represent proteins of interest. Summation of additional quantitation scans increases the average reporter tag intensity, raising nearly all of the protein measurements above the intensity cutoff value (74, 9, and 4 proteins omitted using one, two, and three quantification scans, respectively).
Human embryonic stem cells (line H1) were maintained in feeder independent media as previously described (Chen et al). […]
TMT quantification was performed using TagQuant within COMPASS. […]

Molecule	cell death ([1]; mouse myotube C2C12 cells, 100 μM)	decrease in mitochondrial proteins ([1]; mouse myotube C2C12 cells, 100 μM, 24 hrs)	levels of the mitochondrial voltage dependent anion channel (VDAC) ([1]; mouse skeletal muscle myotubes, FIG. 12)	loss of proteins involved in mitochondrial oxidative phosphorylation (OXPHOS) ([1]; mouse skeletal muscle myotubes, dose-dependent and time-dependent, FIG. 12)	ratio of change between control and treatment cell lines, peptide FCADHPFLFFIR (SEQ ID NO:3) from protein SERPINB8 ([2]; one QM scan, P=0.067)	ratio of change between control and treatment cell lines, peptide FCADHPFLFFIR (SEQ ID NO:3) from protein SERPINB8 ([2]; three quantitation scans summed, P=0.012)	ratio of change between control and treatment cell lines, peptide FCADHPFLFFIR (SEQ ID NO:3) from protein SERPINB8 ([2]; two quantitation scans summed, P=0.014)
CC(=O)N(O)CCCCCNC(=O)CCC(=O)N(O)CCCCCNC(=O)CCC(=O)N(O)CCCCCN [DFO, desferrioxamine]	without causing cell death	marked decrease in mitochondrial proteins	unchanging levels	induces loss of proteins involved in mitochondrial oxidative phosphorylation (OXPHOS)	–	–	–
B1	–	–	–	–	5.86	5.43	5.22
